Assays:
[1] = Binding of fluorescein-labeled peptides to hydroxyapatite nanocrystals (Langmuir isotherm); conditions: fluorescein-labeled peptide 0-100 μM, 0.3 mg hydroxyapatite, ten minutes, Langmuir fit
Experimental: FIG. 1: Binding affinities of DSS and DSS variant peptides for hydroxyapatite and tooth surfaces. A-C. Fluorescein-labeled peptides at concentrations ranging from 0-100 μM were incubated with 0.3 mg of hydroxyapatite nanocrystals (specific surface area=100 m^2/g) for ten minutes, followed by removal of the hydroxyapatite by centrifugation. The amount of peptide in the mixture before and after hydroxyapatite removal was determined by Abs480. Isotherms were plotted and fit to the Langmuir equation to extract values for KA, a constant reflecting the affinity of the peptide for the hydroxyapatite surface. D. Sagitally sectioned human teeth were incubated with 12.5 μM 5(6) carboxyfluorescein-labeled 6DSS peptide for ten minutes, followed by rinsing. Peptide binding to tooth surfaces was visualized by Confocal Laser Scanning Microscopy (CLSM) using blue laser illumination (λA=488 nm) and a FITC emission filter. Left side, light colored region: dentin. Right side, dark colored region: enamel.
Four DSS peptides containing two (2DSS, SEQ ID NO:12), four (4DSS, SEQ ID NO:13), six (6DSS, SEQ ID NO:14), or eight(8DSS, SEQ ID NO:15) Asp-Ser-Ser (DSS) repeats were generated. Peptides were labeled with fluorescein, and various concentrations of the labeled peptides (0-100 μM) were mixed with a fixed amount (0.3 mg) of hydroxyapatite nanocrystals having a specific surface area of 100 m^2/g (Berkeley Advanced Biomaterials, Inc.). Samples were incubated for ten minutes, followed by removal of the hydroxyapatite by centrifugation. The amount of peptide in the mixture was measured both before and after hydroxyapatite removal by spectroscopic absorbance at 480 nm (the peak absorbance of the fluorescein label). The amount of peptide bound was calculated by comparing the ratio of the final (Af) and initial (Ai) absorbances to the initial concentration (P0) [Pbound=[…]]. Plots were generated illustrating the amount of peptide bound per m^2 of hydroxyapatite surface area versus concentration of unbound peptide at equilibrium. The resulting isotherms were fit to the Langmuir isotherm (x/m=(KANMaxCeq)/(1+KACeq)) (Calis 1995), which describes the binding activity of a molecule in terms of a combination of binding affinity (KA) and avidity (NMax). KA represents the affinity constant of the peptide for the hydroxyapatite surface. In this equation, x/m represents the molar amount of peptide bound per unit of hydroxyapatite surface area, NMax represents the maximum surface concentration (mol/m^2), and Ceq represents the molar concentration of unbound peptide at equilibrium. The Langmuir isotherm describes the binding of molecules to surfaces with the conditions that 1) all binding sites have the same affinity for the peptide, and 2) the peptide will form a monolayer on the surface but cannot accumulate to higher levels. The excellent fit of the Langmuir isotherm to the experimental data validates these conditions, and these affinity constants were used for comparisons between peptides.

[2] = Remineralization of demineralized rat femur (SEM); conditions: peptide one hour, then Quell Desensitizer
Experimental: FIG. 7: Mineralization of bone. Rat femurs were obtained from sacrificed animals under a shared tissue protocol. Samples were demineralized, rinsed, and ultrasonicated to remove debris. Test samples were treated with 8DSS peptide for one hour, rinsed, remineralized using Quell Desensitizer as described in Example 8, then imaged by Scanning Electron Microscopy. SEM images are shown. Top: untreated sample, showing the surface of the bone completely covered by mineral. Center: demineralized sample, showing Haversian canals exposed by removal of the mineral layer. Bottom: Bone treated with 8DSS and Quell Desensitizer (an aqueous CaCl2/K2HPO4 solution), showing reestablishment of the mineral layer.
In order to determine whether the remineralization results observed for tooth tissues can be extended to bone, rat femurs were obtained from sacrificed animals under a shared tissue protocol. Test samples were demineralized with 19% EDTA gel for one hour, followed by immersion in deionized water and ultrasonication to remove excess debris. Test samples were then treated with 8DSS peptide for one hour, rinsed, and half of the samples were remineralized using Quell Desensitizer (Pentron Clinical Technologies, LLC) as described in Example 5. All samples were then prepared for SEM and imaged as in Example 5. […] In the demineralized sample, the Haversian canals were clearly exposed (FIG. 7, middle panel). […]

[3] = Binding to inorganic phosphate precipitates (relative fluorescence); conditions: 12.5 μM labeled peptide, ten minutes, about 0.5% (w/v) salt
Experimental: FIG. 10: Relative levels of 8DSS peptide binding to various inorganic phosphate precipitates. 100 mM sodium phosphate (pH 7.5) was combined with 100 mM solutions of MgCl2, CaCl2, MnCl2, CoCl2, NiSO4, CuSO4, and SrCl2, respectively. Suspensions were made of each phosphate salt at a concentration of approximately 0.5% (w/v) in the presence of 12.5 μM 5(6)-carboxyfluorescein-labeled 8DSS peptide. After a ten minute incubation at room temperature, samples were washed and imaged by fluorescence microscopy. The intensity of the fluorescent staining of the inorganic phosphate particles in each sample was assessed by measuring the pixel intensity values using the GIMP (www.gimp.org) as described in Example 11. Normalized fluorescence values are plotted here. […] On the Y-axis, the relative fluorescence intensity values are plotted.
Phosphate salts of magnesium, calcium, manganese, cobalt, nickel, copper, and strontium were prepared by combining 100 mM sodium phosphate (pH 7.5) with 100 mM solutions of the chloride or sulfate salts of the aforementioned metal ions (MgCl2, CaCl2, MnCl2, CoCl2, NiSO4, CuSO4, and SrCl2, respectively). […] Each sample was incubated for ten minutes at room temperature, then washed twice with a solution of 50 mM HEPES pH 7.0 and 10 mM NaCl, resuspended in the same buffer, and imaged by fluorescence microscopy. […]

Substance: 8DSS: peptide containing eight Asp-Ser-Ser (DSS) repeats, SEQ ID NO:15 (DSSDSSDSSDSSDSSDSSDSSDSS; calcium binding peptide containing eight DSS repeats, 8DSS)
- KA, affinity constant of the peptide for the hydroxyapatite surface [1]: 300,000 M^−1
- Remineralization of demineralized bone surface [2]: the mineral surface was restored and occlusion of the canals was observed
- Fluorescent staining of CaHPO4 and SrHPO4 aggregates [3]: highest levels of staining
- Fluorescent staining of NiHPO4 aggregates [3]: small level of staining
